PMC3461104 (Journal of medicinal chemistry, 2012)

Key:
human PBMCs [1] = experiment: Immunoassays for cytokines in human PBMCs; format: cell-based; conditions: hPBMC stimulated 12 h with graded concentrations
human TLR8 = biological target: T1, human TLR8 (Homo sapiens, UniProt Q9NR97); experiment: Human TLR8-specific HEK-Blue reporter gene assay; format: cell-based; conditions: human TLR8-transfected HEK293 cells, NF-κB reporter
T1 sequence (Q9NR97 27-1041): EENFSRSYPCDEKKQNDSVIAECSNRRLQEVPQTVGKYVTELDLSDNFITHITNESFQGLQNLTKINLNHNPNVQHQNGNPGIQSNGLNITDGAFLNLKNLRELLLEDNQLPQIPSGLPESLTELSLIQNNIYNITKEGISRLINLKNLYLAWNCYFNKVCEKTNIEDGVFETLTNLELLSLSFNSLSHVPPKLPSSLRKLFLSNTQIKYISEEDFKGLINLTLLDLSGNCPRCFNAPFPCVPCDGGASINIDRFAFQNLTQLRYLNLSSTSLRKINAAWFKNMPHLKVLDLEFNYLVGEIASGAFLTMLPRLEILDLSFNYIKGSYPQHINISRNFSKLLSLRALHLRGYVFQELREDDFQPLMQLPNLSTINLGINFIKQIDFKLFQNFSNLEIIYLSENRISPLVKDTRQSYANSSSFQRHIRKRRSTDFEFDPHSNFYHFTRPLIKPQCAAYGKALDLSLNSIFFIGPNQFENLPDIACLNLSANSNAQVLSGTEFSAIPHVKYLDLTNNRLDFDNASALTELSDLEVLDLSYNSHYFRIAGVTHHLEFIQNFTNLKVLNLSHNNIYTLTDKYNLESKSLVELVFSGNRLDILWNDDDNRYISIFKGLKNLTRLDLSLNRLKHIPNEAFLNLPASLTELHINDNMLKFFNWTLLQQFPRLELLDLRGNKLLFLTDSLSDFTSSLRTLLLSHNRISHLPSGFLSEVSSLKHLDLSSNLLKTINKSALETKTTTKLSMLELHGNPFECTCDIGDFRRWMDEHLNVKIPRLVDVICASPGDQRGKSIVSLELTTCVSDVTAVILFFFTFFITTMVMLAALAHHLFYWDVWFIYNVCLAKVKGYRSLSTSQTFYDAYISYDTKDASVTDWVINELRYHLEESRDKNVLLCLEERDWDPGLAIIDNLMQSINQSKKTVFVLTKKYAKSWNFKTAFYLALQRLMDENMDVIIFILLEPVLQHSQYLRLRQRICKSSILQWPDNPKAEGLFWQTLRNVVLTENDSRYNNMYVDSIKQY

human PBMCs [2] = experiment: Transcriptomal profiling in human PBMCs; format: cell-based; conditions: human PBMC, 10 μg/mL, two hours, fold change threshold 2.0
[3] = previously observed; cited from earlier work
NF-κB = conditions: previously observed; cited from earlier work
[4] = cited from earlier work

Row | Compound | dose-response profile (area-under the-curve) remark (human TLR8) | proinflammatory cytokine induction (human PBMCs [1]) | other results
1 | Cc1ncc(CO)c2c(Nc3ccccn3)c(NCc3ccccc3)oc12 [Compound 28, (2-(benzylamino)-7-methyl-3-(pyridin-2-ylamino)furo[2,3-c]pyridin-4-yl)methanol] |  | none of the furo[2,3-c]pyridines showed any proinflammatory cytokine induction | 
2 | Cc1ncc(CO)c2c(Nc3ccccc3)c(NCc3ccccc3)oc12 [Compound 36, (2-(benzylamino)-7-methyl-3-(phenylamino)furo[2,3-c]pyridin-4-yl)methanol] | Very low AUC |  | 
3 | CCCCNc1oc2c(C)ncc(CO)c2c1Nc1ccccn1 [Compound 37a, (2-(butylamino)-7-methyl-3-(pyridin-2-ylamino)furo[2,3-c]pyridin-4-yl)methanol] |  | none of the furo[2,3-c]pyridines showed any proinflammatory cytokine induction | 
4 | CCCCCNc1oc2c(C)ncc(CO)c2c1Nc1ccccn1 [Compound 37b, (7-methyl-2-(pentylamino)-3-(pyridin-2-ylamino)furo[2,3-c]pyridin-4-yl)methanol] |  | none of the furo[2,3-c]pyridines showed any proinflammatory cytokine induction | chemokine ligand gene expression (human PBMCs [2]): upregulated several chemokine ligand (both CXCL and CCL) genes; transcriptional signatures of inflammation (human PBMCs [2]): no transcriptional signatures of inflammation
5 | CCCC(C)Nc1oc2c(C)ncc(CO)c2c1Nc1ccccn1 (stereo not drawn) [Compound 37d, (7-methyl-2-(pentan-2-ylamino)-3-(pyridin-2-ylamino)furo[2,3-c]pyridin-4-yl)methanol] | Low AUC |  | 
6 | Cc1ncc(CO)c2c(Nc3ccccn3)c(NC[Si](C)(C)C)oc12 [Compound 37f, (7-methyl-3-(pyridin-2-ylamino)-2-(((trimethylsilyl)methyl)amino)furo[2,3-c]pyridin-4-yl)methanol] |  | none of the furo[2,3-c]pyridines showed any proinflammatory cytokine induction | chemokine ligand gene expression (human PBMCs [2]): upregulated several chemokine ligand (both CXCL and CCL) genes; transcriptional signatures of inflammation (human PBMCs [2]): no transcriptional signatures of inflammation
7 | Cc1ncc(CO)c2c(Nc3ccccn3)c(NCCC(=O)OC(C)(C)C)oc12 [Compound 37i, tert-butyl 3-((4-(hydroxymethyl)-7-methyl-3-(pyridin-2-ylamino)furo[2,3-c]pyridin-2-yl)amino)propanoate] | Low AUC |  | 
8 | Cc1ncc(CO)c2c(Nc3ccccn3)c(N[C@@H](C)c3ccccc3)oc12 [Compound 37m, (S)-(7-methyl-2-((1-phenylethyl)amino)-3-(pyridin-2-ylamino)furo[2,3-c]pyridin-4-yl)methanol] | Very low AUC |  | 
9 | Clc1ccc2c(NCCCCNc3ccnc4cc(Cl)ccc34)ccnc2c1 [Compound 41, 7-chloro-N-(4-(7-chloroquinolin-4-ylamino)butyl) quinolin-4-amine] |  |  | proinflammatory cytokine induction [3]: unaccompanied by any proinflammatory cytokine induction; NF-κB transactivation (NF-κB): potent NF-κB transactivation; adjuvantic activity [4]: potent adjuvant

Second part, led by results:

Row | dose-response profile (area-under the-curve) remark (human TLR8) | Compound | proinflammatory cytokine induction (human PBMCs [1]) | other results
10 | Low AUC | CCCCCNc1oc2c(C)ncc(CO)c2c1Nc1ccccc1 [Compound 38a, (7-methyl-2-(pentylamino)-3-(phenylamino)furo[2,3-c]pyridin-4-yl)methanol] |  | 
11 | Low AUC | CCCCCNc1oc2c(C)ncc(CO)c2c1Nc1cccc(F)c1 [Compound 38b, (3-((3-fluorophenyl)amino)-7-methyl-2-(pentylamino)furo[2,3-c]pyridin-4-yl) methanol] |  | 
12 | Low AUC | CCCCCNc1oc2c(C)ncc(CO)c2c1Nc1cccc([N+](=O)[O-])c1 [Compound 38c, (7-methyl-3-((3-nitrophenyl)amino)-2-(pentylamino)furo[2,3-c]pyridin-4-yl)methanol] |  | 
